Measured values taken from article PMC5494507, “γ‐Secretase inhibitors in cancer clinical trials are pharmacologically and functionally distinct” (EMBO Molecular Medicine, 2017).
“Also recorded” adds a separate entry of the source.

How the values were obtained:
SPPL2a, SPPL2b, and SPP = assay: Cell-based SPPLs cleavage assay, HEK 293t cells co-transfected with FBA and SPPLs (ELISA); details: 1 μM, HEK 293t co-transfected with SPPLs and FBA
Experimental: It is known that SPP/SPPLs can be inhibited by select GSIs (Ran et al, 2015). Here, we tested the effect of various GSIs on the SPP/SPPL family members SPPL2a, SPPL2b, and SPP. We co‐transfected SPPLs with the BRI2 based chimeric SPP/SPPL substrate that we have referred to as FBA into HEK 293t cells. SPPL‐specific inhibitor (ZLL)2‐ketone was used as positive control. DAPT was not tested here as we and others have previously reported it had no effect on SPP activity at concentration up to 100 μM (Weihofen et al, 2003). […] Dose responses of BMS‐906024, RO4929097, and PF‐3084014 were performed with a similar strategy, but a stable SPPL2b/FBA overexpressing HEK 293 cell line was used instead of transient transfection (Fig 8B). […] Table 3 compares the GSIs’ potencies on γ‐secretase and SPPL2b. The average of IC50s on cNOTCH1sub, cNOTCH2sub, cNOTCH4sub, and APP was used as the GSI's potency on γ‐secretase.
SPPL2a, SPPL2b, SPP, and chimeric substrate FBA were generated as previously described (Ran et al, 2015). A20 cells (TIB‐208; ATCC, Manassas, VA, USA) were cultured in RPMI‐1640 medium (ATCC) supplied with 10% fetal bovine serum, 1% penicillin/streptomycin, and 0.05 mM 2‐mercaptoethanol (Life Technologies). Various concentrations of GSIs and (ZLL)2‐ketone as indicated in figures were applied to transfected HEK 293t cells at 70–90% confluence or A20 cells at a density of 5 × 10^5 cells/ml with fresh media in 48‐well format for 16 h. Cells and conditioned media were used for WB, IP, and ELISA.
(§1) Sandwich ELISAs used for Aβ detection were performed as previously described (Murphy et al, 1999; Ran et al, 2014). Briefly, Aβ and Aβ‐like peptides in conditioned media were captured with Ab5 antibody and detected with horseradish peroxidase labeled mAb 4G8 (Biolegend). Synthetic Aβ1‐40 was used as standard. All ELISAs were developed with TMB substrate (KPL, Gaithersburg, Maryland, USA). Bis‐Tris precast gels (Biorad, Hercules, CA, USA) were used for all SDS–PAGE. Monoclonal anti‐FLAG M2 antibody (Sigma) and Aβ1‐16 antibody 6E10 (Covance) were used for Western blotting at 1:1,000 dilution. Anti‐CD74 In‐1 antibody (BD Bioscience, San Jose, CA, USA) was used for A20 cell lysate Western blotting at dilution of 1:1,000. MDA‐MB‐231 cell extracts were prepared by lysing cells in RIPA buffer containing protease and phosphatase inhibitors. The lysates were kept on ice for 30 min and vortexed every 10 min, and then centrifuged at 4°C for 10 min at 1,000 g. The supernatants were collected, and protein concentrations were determined by Bradford Assay. Pan‐NOTCH1 antibody (C‐20) (Santa Cruz Biotechnology) and cleaved NOTCH1 (Val1744) antibody ([…]) were used at 1:500 and 1:100 dilution in the test of endogenous NOTCH1 inhibition with β‐actin expression used as loading control. β‐actin antibody was used at 1:1,000 dilution (Sigma). Band intensities normalized for actin using densitometry analysis with ImageJ Software (NIH, USA).

APP = assay: Endogenous APP-CTF accumulation in MDA-MB-231 cells (Western blot); format: cell-based; details: for APP CTF level / accumulation at 100 nM / APP CTF increase: MDA-MB-231 (231 cells), triplicate, 100 nM; for concentration from which APP‐CTF process is inhibited: MDA-MB-231, 16 h; for APP CTF increase: vs DMSO
Experimental: (§2) To extend the study to a more physiological system, we assessed endogenous NOTCH1 cleavage inhibition using the triple‐negative breast cancer line MDA‐MB‐231 (Fig 6A). Full‐length blots are shown in source data for Fig 6. NOTCH1 cleavage was detected by Western blotting using the Cell Signaling neo‐epitope NICD antibody. […] The inhibition of endogenous APP in MDA‐MB‐231 cells was also tested by detecting accumulation of APP COOH‐terminal fragments (APP‐CTFs). […] Figure 6D summarized the APP‐CTF band intensities normalized for DMSO group. The original blots are available in source data for Fig 6.
Values are mean ± SD of three tests. • APP‐CTF Western blot of MDA‐MB‐231 cells treated with indicated concentration of GSIs for 16 h. • Band intensities of APP‐CTF with 0.1 μM GSIs were normalized for DMSO control group. Values are mean ± SD of three tests. Data information: Original blots are provided as source data. All band intensity data are derived from three independent experiments and are analyzed by one‐way ANOVA using GraphPad Prism6 software. All experiments were repeated three times.Source data are available online for this figure.

NOTCH1 = assay: Endogenous NOTCH1 cleavage inhibition in MDA-MB-231 cells (NICD Western blot after EDTA activation); format: cell-based; details: for NICD levels at 100 nM: MDA-MB-231, 100 nM
Experimental: as §2
Short‐term endogenous NOTCH1 cleavage inhibition was tested in the triple‐negative breast cancer cell lines MDA‐MB‐231 (ATCC, Manassas, VA). Cells were plated in 60 mm dishes and maintained as monolayer cultures in DMEM medium supplemented with 10% FBS, 1% penicillin/streptomycin, 1% L‐glutamine (Life Technologies), and incubated at 37°C in a humidified 5% CO2 incubator. After the cells reached ~75% confluency, cultures were pretreated with GSIs for 1 h in DMEM at 37°C in a 5% CO2 incubator. GSIs were tested at concentrations of 0, 0.1, 0.5, 2.5, and 12.5 μM. Then, EDTA (5 mM, Life Technologies) was added to the cell cultures to induce Notch activation for 5 min. Following incubation, cell extracts were prepared by lysing cells in RIPA buffer (Santa Cruz Biotechnology) containing protease and phosphatase inhibitors. Western blotting was performed using Cleaved NOTCH1 (Val1744) antibody (Cell Signaling) with β‐actin (Santa Cruz Biotechnology) as loading control. Band intensities were normalized for actin using ImageJ Software (NIH, USA).
as §1

Aβ40 = test system: Aβ40; design: method as in ref Appendix Table S1 (Gavai et al, 2015; Dovey et al, 2001; Cook et al, 2010; Krop et al, 2012; Wei et al, 2010; Luistro et al, 2009; Mitani et al, 2012); details: ref Appendix Table S1 (Gavai et al, 2015; Dovey et al, 2001; Cook et al, 2010; Krop et al, 2012; Wei et al, 2010; Luistro et al, 2009; Mitani et al, 2012); read-out: Reported IC50s Aβ40; cited from earlier work

CC(C)[C@H](O)C(=O)N[C@@H](C)C(=O)N[C@@H]1C(=O)N(C)CCc2ccccc21 [Semagacestat]
SPPLs‐catalyzed cleavage of FBA substrate (SPPL2a, SPPL2b, and SPP): did not show significant inhibition | APP CTF level / accumulation at 100 nM (APP): hard to see; also recorded: did not significantly increase CTF level | concentration from which APP‐CTF process is inhibited (APP): ≥ 500 nM | NICD levels (NOTCH1; MDA-MB-231, 100 nM to 12.5 μM, 1 h pretreatment then 5 mM EDTA 5 min): reduced NICD concentrations to near‐baseline levels at all concentrations tested | IC50 (Aβ40): 12.1 nM

O=C(O)CC[C@H]1CC[C@@](c2cc(F)ccc2F)(S(=O)(=O)c2ccc(Cl)cc2)CC1 [MK‐0752]
SPPLs‐catalyzed cleavage of FBA substrate (SPPL2a, SPPL2b, and SPP): did not show significant inhibition | APP CTF level / accumulation at 100 nM (APP): hard to see | APP CTF level / accumulation at 100 nM (APP; listed as MK): did not significantly increase CTF level | concentration from which APP‐CTF process is inhibited (APP): ≥ 500 nM | concentration reducing NICD to background levels or below (NOTCH1; MDA-MB-231): ≥ 0.5 µM | IC50 (Aβ40): 5 nM

CC(C)(C(=O)NCC(F)(F)C(F)(F)F)C(=O)N[C@@H]1C(=O)Nc2ccccc2-c2ccccc21 [RO4929097]
SPPLs‐catalyzed cleavage of FBA substrate (SPPL2a, SPPL2b, and SPP): efficiently inhibited | APP CTF increase (APP): > 15 times | concentration from which APP‐CTF process is inhibited (APP): ≥ 20 nM | NICD levels at 100 nM (NOTCH1): reduced NICD to levels equal or lower than baseline | IC50 (Aβ40): 14 nM

CCC[C@H](N[C@H]1CCc2cc(F)cc(F)c2C1)C(=O)Nc1cn(C(C)(C)CNCC(C)(C)C)cn1 [PF‐3084014]
SPPLs‐catalyzed cleavage of FBA substrate (SPPL2a, SPPL2b, and SPP): mild inhibition | APP CTF increase (APP): > 15 times | concentration from which APP‐CTF process is inhibited (APP): ≥ 20 nM | NICD levels at 100 nM (NOTCH1): reduced NICD to levels equal or lower than baseline | IC50 (Aβ40): 6.2 nM

CN1C(=O)[C@@H](NC(=O)[C@H](CCC(F)(F)F)[C@H](CCC(F)(F)F)C(N)=O)N=C(c2ccccc2)c2ccccc21 [BMS‐906024]
SPPLs‐catalyzed cleavage of FBA substrate (SPPL2a, SPPL2b, and SPP): efficiently inhibited | APP CTF increase (APP): > 15 times | concentration from which APP‐CTF process is inhibited (APP): ≥ 20 nM | NICD levels at 100 nM (NOTCH1): reduced NICD to levels equal or lower than baseline | IC50 (Aβ40): 1.6 nM
